Laboratory results reported in patent publication US20140336259A1, “PHENOLIC COMPOUNDS WITH ANTIOXIDANT AND ANTI-CANCER PROPERTIES, ANALOGS AND SYNTHESIS THEREOF” (priority 2011, published 2014).
In brackets after ≈: the same amount, converted by molar mass. Several values for one entry are separate records, joined by “and”; a condition that tells them apart may be missing. Identical values can stand only once. Like-named read-outs stand apart in the source and are kept apart here.

How the values were obtained:
[1] = tested on: MDA-MB-231 (ER negative) human breast cancer cells; experiment: MTS antiproliferative/cytotoxicity assay on MDA-MB-231 cells; assay type: cell-based
[2] = tested on: MCF-7 (estrogen receptor (ER) positive) human breast cancer cells; experiment: MTS antiproliferative/cytotoxicity assay on MCF-7 cells; settings: for MCF-7 IC50: 72 h treatment, mean ± S.D., vs DMSO 0.5% control; for antiproliferative / cytotoxic activity in words: against MCF-7 cells and MDA-MB 231 cells, 72 h of treatment
colon cancer cell lines = settings: Gonzales-Sarrias et al. 2011; cited from earlier work
[3] = tested on: MCF-7 (estrogen receptor (ER) positive) human breast cancer cells
[4] = Homo sapiens, MDA-MB-231, 72 h, 72 h, read-out: IC50 MDA-MB-231 72 h
[5] = Homo sapiens, MDA-MB-231, 72 h, 72 h treatment, mean ± S.D., vs DMSO 0.5% control, read-out: MDA-MB-231 IC50
[6] = Homo sapiens, MDA-MB-231, 96 h, 96 h, read-out: IC50 MDA-MB-231 96 h
[7] = read-out: IC50 MCF-7 72 h, 72 h
[8] = read-out: IC50 MCF-7 96 h, 96 h
[9] = Homo sapiens, MDA-MB-231, 24 h, 24 h, read-out: IC50 MDA-MB-231 24 h
[10] = Homo sapiens, MDA-MB-231, 48 h, read-out: IC50 MDA-MB-231 48 h, 48 h
[11] = read-out: IC50 MCF-7 24 h, 24 h
[12] = read-out: IC50 MCF-7 48 h, 48 h
[13] = 24 h, read-out: IC50 MDA-MB-231 24 h
[14] = 72 h, read-out: IC50 MDA-MB-231 72 h
[15] = 72 h treatment, mean ± S.D., vs DMSO 0.5% control
[16] = 96 h, read-out: IC50 MDA-MB-231 96 h
[17] = read-out: IC50 MDA-MB-231 48 h, 48 h

SMILES | IC50 [1, 4] | IC50 [1, 5] | IC50 [1, 6] | MCF-7 IC50 [2] | IC50 MCF-7 96 h ([2]; 96 h) | antiproliferative / cytotoxic activity in words [2] | IC50 [2, 7] | IC50 [2, 8] | IC50 [1, 9] | IC50 [1, 10] | IC50 MCF-7 24 h ([2]; 24 h) | IC50 MCF-7 48 h ([2]; 48 h) | IC50 [2, 11] | IC50 [2, 12] | further results
COc1cc(C(O)c2ccccc2OC)ccc1OCc1ccccc1 (centres unmarked) [QB12] | 67.2 µg/mL and 192 µM | 62.9 to 77.4 µg/mL | 58 µg/mL and 165 µM | 65.0 ± 1.4 µg/mL | 59.6 µg/mL (≈ 170 µM) | moderate cytotoxic activity | 185 µM | 170 µM | – | – | – | – | – | – | –
COc1cc(C(O)c2ccc(OCc3ccccc3)c(OC)c2)ccc1OCc1ccccc1 [QB46] | 62.9 µg/mL and 138 µM | 62.9 to 77.4 µg/mL | 53 µg/mL and 116 µM | 44.8 ± 1.7 µg/mL | 36.8 µg/mL (≈ 80.6 µM) | moderate cytotoxic activity | 98.1 µM | 80.7 µM | 78.3 µg/mL and 172 µM | 72.4 µg/mL and 159 µM | 73.2 µg/mL (≈ 160 µM) | 59.5 µg/mL (≈ 130 µM) | 160 µM | 130 µM | –
CCOC(=O)C(c1ccc(OCc2ccccc2)c(OC)c1)C(c1ccc(OCc2ccccc2)c(OC)c1)c1ccc(OCc2ccccc2)c(OC)c1 (centres unmarked) [QB56] | 136 µg/mL and 185 µM | 136 ± 3.7 µg/mL | 129 µg/mL and 176 µM | 138.1 ± 3.1 µg/mL | 124.9 µg/mL (≈ 169 µM) | – | 188 µM | 170 µM | – | 143 µg/mL and 195 µM | – | – | – | – | –
CCOC(=O)C(c1ccc(O)c(OC)c1)C(c1ccc(O)c(OC)c1)c1ccc(O)c(OC)c1 (centres unmarked) [QB57] | 85.1 µg/mL and 182 µM | 85.1 ± 1.8 µg/mL | 73.8 µg/mL and 158 µM | – | – | – | – | – | – | – | – | – | – | – | –
COc1cc(C(CO)C(c2ccc(O)c(OC)c2)c2ccc(O)c(OC)c2)ccc1O (centres unmarked) [QUEBECOL SYNTHETIC, 4,4′,4″-(3-Hydroxypropane-1,1,2-triyl)tris(2-methoxyphenol)] | – | – | – | 44.4 ± 1.8 µg/mL | 38.0 µg/mL (≈ 89.1 µM) | – | 104 µM | 89.1 µM | – | – | 67.2 µg/mL (≈ 158 µM) | 54.2 µg/mL (≈ 127 µM) | 158 µM | 127 µM | IC50 MDA-MB-231 24 h ([1]; 24 h): 72.5 µg/mL (≈ 170 µM); IC50 [1, 13]: 170 µM; IC50 MDA-MB-231 48 h ([1]; 48 h): 55.6 µg/mL (≈ 130 µM); IC50 MDA-MB-231 72 h ([1]; 72 h): 48.5 µg/mL (≈ 114 µM); IC50 [1, 14]: 114 µM; MDA-MB-231 IC50 [1, 15]: 48.5 ± 1.9 µg/mL; IC50 MDA-MB-231 96 h ([1]; 96 h): 43.8 µg/mL (≈ 103 µM); IC50 [1, 16]: 103 µM; IC50 [1, 17]: 130 µM
COc1cc(C(CO)C(c2ccc(O)c(OC)c2)c2ccc(O)c(OC)c2)ccc1O (centres unmarked) [QUEBECOL, 4,4′,4″-(3-Hydroxypropane-1,1,2-triyl)tris(2-methoxyphenol)] | 50.7 µg/mL and 119 µM | 50.7 ± 2.4 µg/mL | 43.3 µg/mL and 102 µM | 46.3 ± 2.1 µg/mL | 37.4 µg/mL (≈ 87.7 µM) | – | – | – | 70.9 µg/mL and 166 µM | 57 µg/mL and 134 µM | 65.9 µg/mL (≈ 155 µM) | 53.5 µg/mL (≈ 125 µM) | – | – | IC50 ([1]; Homo sapiens, MDA-MB-231, 24 h, 24 h, combination study Table 5B, T starting 50 μM, Q starting 200 μM, read-out: IC50 MDA-MB-231 24 h): 166 µM; IC50 ([1]; Homo sapiens, MDA-MB-231, 48 h, read-out: IC50 MDA-MB-231 48 h, 48 h, combination study Table 5B): 134 µM; IC50 ([1]; Homo sapiens, MDA-MB-231, 72 h, 72 h, combination study Table 5B, read-out: IC50 MDA-MB-231 72 h): 119 µM; IC50 ([1]; Homo sapiens, MDA-MB-231, 96 h, 96 h, combination study Table 5B, read-out: IC50 MDA-MB-231 96 h): 102 µM; cytotoxic effect on colon cancer cell lines (colon cancer cell lines): cytotoxic effect; MCF-7 IC50 ([2]; listed as QUEBECOL Natural): 46.3 ± 2.1 µg/mL; IC50 ([2]; read-out: IC50 MCF-7 24 h, 24 h, combination study Table 5A, T starting 50 μM, Q starting 200 μM): 155 µM; IC50 ([2]; read-out: IC50 MCF-7 24 h, 24 h, listed as QUEBECOL Natural): 155 µM; IC50 ([2]; read-out: IC50 MCF-7 48 h, 48 h, combination study Table 5A): 126 µM; IC50 ([2]; read-out: IC50 MCF-7 48 h, 48 h, listed as QUEBECOL Natural): 126 µM; IC50 ([2]; read-out: IC50 MCF-7 72 h, 72 h, combination study Table 5A): 109 µM; IC50 ([2]; read-out: IC50 MCF-7 72 h, 72 h, listed as QUEBECOL Natural): 109 µM; IC50 ([2]; read-out: IC50 MCF-7 96 h, 96 h, combination study Table 5A): 87.9 µM; IC50 ([2]; read-out: IC50 MCF-7 96 h, 96 h, listed as QUEBECOL Natural): 87.9 µM
COC(=O)c1cc(C(O)(c2ccc(O)c(C(=O)OC)c2)c2ccc(O)c(C(=O)OC)c2)ccc1O [TRD1] | 93.9 µg/mL and 195 µM | 93.9 ± 2.4 µg/mL | 89.4 µg/mL and 185 µM | 84.1 ± 3.4 µg/mL | 78.3 µg/mL (≈ 162 µM) | – | 174 µM | 162 µM | – | – | 94.2 µg/mL (≈ 195 µM) | 89.1 µg/mL (≈ 185 µM) | 195 µM | 185 µM | –
OCc1cc(CCCCCCCCCCCCc2ccc(O)c(CO)c2)ccc1O [TRD5] | 81.6 µg/mL and 197 µM | 62.9 to 77.4 µg/mL | 78.2 µg/mL and 189 µM | 75.9 ± 1.9 µg/mL | 66.5 µg/mL (≈ 160 µM) | moderate cytotoxic activity | 183 µM | 160 µM | – | – | – | 80.9 µg/mL (≈ 195 µM) | – | 195 µM | –
COc1ccc(C(O)(c2ccc(OC)c(O)c2)c2ccc(OC)c(O)c2)cc1O [TRD6] | 75.2 µg/mL and 189 µM | 62.9 to 77.4 µg/mL | 71.5 µg/mL and 179 µM | 60.4 ± 1.9 µg/mL | 43.6 µg/mL (≈ 109 µM) | moderate cytotoxic activity | 152 µM | 109 µM | – | – | 78.7 µg/mL (≈ 198 µM) | 66.1 µg/mL (≈ 166 µM) | 198 µM | 166 µM | –
COc1ccc(C(O)(c2ccc(OC)c(F)c2)c2ccc(OC)c(F)c2)cc1F [TRD7] | – | – | – | – | 23.2 µg/mL (≈ 57.4 µM) | highest antiproliferative activities | 61.3 µM | 57.3 µM | – | – | 42.3 µg/mL (≈ 105 µM) | 32.7 µg/mL (≈ 80.9 µM) | 105 µM | 80.9 µM | IC50 MDA-MB-231 24 h ([1]; 24 h): 36.4 µg/mL (≈ 90 µM); IC50 [1, 13]: 90 µM; IC50 MDA-MB-231 48 h ([1]; 48 h): 30.4 µg/mL (≈ 75.2 µM); IC50 MDA-MB-231 72 h ([1]; 72 h): 24.0 µg/mL (≈ 59.3 µM); IC50 [1, 14]: 59.4 µM; MDA-MB-231 IC50 [1, 15]: 24.0 ± 2.1 µg/mL; IC50 MDA-MB-231 96 h ([1]; 96 h): 15.6 µg/mL (≈ 38.6 µM); IC50 [1, 16]: 38.7 µM; IC50 [1, 17]: 75.3 µM; IC50 MCF-7 72 h ([2]; 72 h): 24.8 µg/mL (≈ 61.3 µM)
COc1ccc(C(O)(c2ccc(OC)c(C=O)c2)c2ccc(OC)c(C=O)c2)cc1C=O [TRD8] | 17.4 µg/mL and 40 µM | 17.5 to 24 µg/mL | 11.2 µg/mL and 25.8 µM | 10.6 ± 2.1 µg/mL | 7.0 µg/mL (≈ 16.1 µM) | highest antiproliferative activities | 24.3 µM | 16.2 µM | 43.5 µg/mL and 100 µM | 27.8 µg/mL and 63.9 µM | 42.0 µg/mL (≈ 96.7 µM) | 21.8 µg/mL (≈ 50.2 µM) | 96.7 µM | 50.1 µM | –
COc1ccc(C(O)(c2ccc(OC)c(Br)c2)c2ccc(OC)c(Br)c2)cc1Br [TRD9] | 97.8 µg/mL and 167 µM | 97.8 ± 3.5 µg/mL | 89.9 µg/mL and 153 µM | 91.4 ± 3.4 µg/mL | 82.3 µg/mL (≈ 140 µM) | – | 156 µM | 140 µM | 115 µg/mL and 196 µM | 108 µg/mL and 183 µM | 110.7 µg/mL (≈ 189 µM) | 102.5 µg/mL (≈ 175 µM) | 189 µM | 175 µM | –
COc1ccc(C(O)(c2ccc(OC)c(Cl)c2)c2ccc(OC)c(Cl)c2)cc1Cl [TRD10] | 77.4 µg/mL and 170 µM | 62.9 to 77.4 µg/mL | 68.7 µg/mL and 151 µM | 73.5 ± 1.8 µg/mL | 54.4 µg/mL (≈ 120 µM) | – | 162 µM | 120 µM | – | 85.8 µg/mL and 189 µM | 87.0 µg/mL (≈ 192 µM) | 81.9 µg/mL (≈ 180 µM) | 192 µM | 180 µM | antiproliferative / cytotoxic activity in words [3]: moderate cytotoxic activity
